# Where two headings read alike, the source gives them in different places. Square brackets hold non-standard residues; d marks the D form. Peptide text beside a SMILES is read from it. * marks the point of attachment. Stearoyl = CCCCCCCCCCCCCCCCCC(=O)*; Orn = NCCC[C@H](N)C(=O)O
# How the values were obtained:
# [1] = system: BALB/c mice; experiment: Side effects / lethality after i.v. injection of complexes; type: in vivo, mouse; details: PF14/pDNA at N/P2, i.v., all experiments
# Description: For in vivo studies, 20–50 µg of p-CMV-Luc2 (marked as pLuc in the text) per animal was mixed with a peptide at indicated N/P in MQ in a final volume of 100 µl. After 40 minutes of incubation, glucose was added to a final 5% glucose in 200 μl and immediately injected intravenously via the tail vein.
# Reporter gene expression levels were evaluated post mortem 24 h after injecting the complexes into the tail vein, using male and female BALB/c mice (8-week-old). Each animal received a single 200 μl i.v. injection of the complexes. The mice were sacrificed using cervical dislocation and tissues were harvested and snap-frozen on dry ice. The whole tissues were homogenized using a Precellys®24-Dual homogenization system (Bertin Technologies, France) and lysed using 1 × Promega lysis buffer (Promega, Sweden). The content of luciferase was analyzed as described previously. Briefly, homogenized tissues were thawed and 500 µl of Promega Reporter lysis 1 × buffer was added. The samples were subsequently vortexed for 15 minutes, subjected to three consecutive freeze-thaw cycles (liquid nitrogen and 37 °C water bath), centrifuged for three minutes at 10,000 x g, 4 °C; the supernatant was removed and saved for later analysis. […] Luciferase was measured with Promega luciferase assay system, in combination with GLOMAX 96 microplate luminometer (Promega, Sweden). […]
# [2] = system: CHO cells; experiment: Plasmid delivery (luciferase) assay in cell culture; type: cell-based; details: 24-well plate
# Description: If not indicated otherwise, complexes were formed using 0.5 μg of pDNA (pGL3, Promega, Sweden) mixed with a peptide at indicated charge ratio (N/P, nitrogen-to-phosphate ratio) in MQ water in a final volume of 50 μl. N/P was calculated theoretically and accounted for both the positive charges of the peptide (Table 1) and negative charges of the pDNA. Thereafter, complexes were incubated for 40 minutes at room temperature prior to each experiment.
# For the plasmid delivery assay, 4 × 10^4 CHO cells were seeded 24 hours prior to each experiment in 24-well plates. Cells were treated with CPP/pDNA complexes at indicated N/P for 4 h in serum containing media, followed by the addition of 1 ml 10% serum-containing medium and incubated for another 20 hours. Thereafter, cells were washed with 1x PBS and lysed using 100 µl 0.1% Triton X-100 in PBS for 15 min at 4 °C. Luciferase activity was measured using Promega’s luciferase assay system according to the manufacturer’s protocol using a GLOMAX™ 96 microplate luminometer (Promega, Sweden) and normalized to the protein content (BioRad Protein Assay, USA).
# [3] = system: mouse RBC; experiment: Hemolysis assay (activity towards cell membranes); type: cell-based; details: 1 h 37 °C, triplicates
# Description: The ability of the peptides to lyse the red blood cells (RBC) in PBS was used as a measure of membrane activity. To obtain fresh mouse RBC, blood was collected from the saphenous vein using sodium-heparinized (80 iu/ml ± 30%) blood collection capillaries (Marienfeld, Germany) and transferred to heparinized blood collecting tubes (Sarstedt, Germany). To isolate RBCs, the whole blood was centrifuged for 15 minutes at 300 × g, followed by removal of the plasma. The RBCs were then washed three times with 1 × PBS (RBC pelleting with 15 minutes at 300 × g). The resulting RBCs were then resuspended in PBS at 4% (v/v).
# For the analysis, 200 μl of RBC suspension was added to 200 μl of peptide solution or peptide/pDNA complexes in 5% glucose (final RBC concentration 2%) and gently vortexed. The peptide/pDNA complexes were prepared using a fixed 1 μg of pDNA and varying amount of the peptide. Following this, samples were incubated for 1 hour at 37 °C with gentle stirring. After incubation, the RBCs were pelleted (15 minutes at 300 × g) and the amount of hemoglobin in the supernatant was assessed by measuring the absorbance at 540 nm using a 96-well microplate reader. The experiments were conducted in triplicates.
# 100% of hemolysis was defined as the RBCs treated with 0.1% Triton-X100 in PBS and 0% was obtained with cells incubated in 5% glucose solution. % of hemolysis was calculated by the formula: % Hemolysis = [(Asample − Aglucose)/Atriton − Aglucose)] × 100.
# [4] = target: T1, proteinase K (Parengyodontium album, UniProt P06873); type: in vitro ADME
# T1 construct: purchased Thermo Scientific
# [5] = Complex stability in FBS, gel shift assay; details: 50% FBS, 37 °C, 48 h, serum and/or triton + heparin dissociation
# Description: Then the samples were mixed with the DNA loading dye and electrophoresed exactly as stated above in the Gel shift assay description, using 0.1 µg of pDNA per lane. ZipRuler Express DNA Ladder 2 (ThermoFisher Scientific) was added to each gel.
# The stability of the complexes after incubation in FBS, visualized by gel shift assay.
# [6] = system: lungs; details: Cy5-labelled pDNA, i.v., 1 h post-injection, confocal microscopy of cryosections
# Description: The physical accumulation of the complexes were assessed by using Cy5-labeled pDNA (Mirus, USA). Equal amounts of labelled pDNA were administered, regardless of the N/P ratio of the complexes (e.g. N/P4 included 20 μg of labelled pDNA, whereas in case of N/P2, 20 μg of labelled pDNA was mixed with 30 μg of unlabeled pDNA). For the histological evaluation, the lungs were inflated postmortem with 1:1 cryomatrix:PBS (O.C.T embedding matrix, Kaltek, Italy), frozen in 2-methylbutane bath on dry ice. Fresh cryo-sections (10 μm thick) were fixed with ice cold methanol, counterstained with DAPI (AppliChem) and imaged with confocal microscopy (Zeiss LSM710).
# [7] = target: T1, proteinase K; experiment: Proteinase K treatment of CPP/pDNA complexes; type: in vitro ADME; details: 26 °C
# Description: For the proteinase K treatment, 30 μl of pre-formed CPP/pDNA complex solution (0.3, 0.2, 0.1 and 0.05 µg of pDNA per sample) or CPP in MQ was transferred to a black 96-well plate and 90 µl of MQ was added. After a short period of mixing, fluorescent DNA intercalating dye dilution was added (Quant-iT™ PicoGreen®, ThermoFisher Scientific) and incubated for 5 minutes at room temperature. The fluorescence was measured (Synergy MX, BioTek; λex 492 and λem 535) to quantify the initial accessibility of pDNA. Thereafter 10 μl of Proteinase K (Thermo Scientific) was added with the final enzyme concentration ~2.4 U per well. Fluorescence was measured over an indicated period at 26 °C. The readings were normalized against the fluorescence of free pDNA.
# T1 sequence (P06873 106-384): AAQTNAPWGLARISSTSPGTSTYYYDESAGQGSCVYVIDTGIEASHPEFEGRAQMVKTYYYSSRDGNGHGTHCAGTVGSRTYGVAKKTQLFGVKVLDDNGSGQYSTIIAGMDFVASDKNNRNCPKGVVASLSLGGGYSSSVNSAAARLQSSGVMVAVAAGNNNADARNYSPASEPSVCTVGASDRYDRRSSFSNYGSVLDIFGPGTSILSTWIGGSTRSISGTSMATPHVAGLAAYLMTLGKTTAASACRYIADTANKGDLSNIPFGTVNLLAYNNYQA
compound,measurement,setting,value
CCCCCCCCCCCCCCCCCC(=O)N[C@@H](C)C(=O)NCC(=O)N[C@@H](Cc1ccc(O)cc1)C(=O)N[C@@H](CC(C)C)C(=O)N[C@@H](CC(C)C)C(=O)NCC(=O)N[C@@H](CCCCN)C(=O)N[C@@H](CC(C)C)C(=O)N[C@@H](CC(C)C)C(=O)N[C@@H](CCCN)C(=O)N[C@@H](CCCN)C(=O)N[C@@H](CC(C)C)C(=O)N[C@@H](C)C(=O)N[C@@H](C)C(=O)N[C@@H](C)C(=O)N[C@@H](C)C(=O)N[C@@H](CC(C)C)C(=O)N[C@@H](CCCN)C(=O)N[C@@H](CCCN)C(=O)N[C@@H](CC(C)C)C(=O)N[C@@H](CC(C)C)C(N)=O [PF14] (Stearoyl-AGYLLGKLL[Orn][Orn]LAAAAL[Orn][Orn]LL-NH2),"lethality / side effects, N/P2",[1],zero lethality
same,"usable pDNA dose before toxicity, N/P2","[2]; PF14/pDNA N/P2, CHO cells",up to 2 μg
same,"pDNA dose giving maximum transfection before toxicity, N/P4","[2]; PF14/pDNA N/P4, CHO cells",0.5 μg
same,"usable pDNA dose before toxicity, N/P6","[2]; PF14/pDNA N/P6, CHO cells",0.125 μg
same,EC50,"[3]; naked peptide in 5% glucose, mouse RBC 2% final in PBS, hemoglobin absorbance 540 nm, 100% = 0.1% Triton X-100, read-out: EC50 (μM) of CPP (membrane activity, concentration required to lyse 50% of the cells)",0.66 µM
same,EC50,"[3]; peptide/pDNA complexes, fixed 1 μg pDNA and varying peptide, mouse RBC 2% final, absorbance 540 nm, read-out: EC50 (μM) of CPP/pDNA (membrane activity)",1.43 µM
same,degradation of naked peptide by proteinase K (in words),[4],easily degraded
same,pDNA migration from complexes after 48 h in serum (in words),[5],migration of pDNA from some of the complexes could be observed
same,"accumulation of complexes in lungs, N/P2 (in words)",[6],significantly lower signal
same,"accumulation of complexes in lungs, N/P4 (in words)",[6],considerable amount of the fluorescence was observed in lungs
same,stability of the complexes against proteinase K (in words),"[7]; CPP/pDNA complexes at N/P2, accessible pDNA over time by intercalating dye",less stable particles where DNA was liberated into the solution
same,Proteinase K: t1/2 (min) of the complexed pDNA (95%CI),"[7]; CPP/pDNA complexes at N/P2 in MQ, proteinase K ~2.4 U per well, accessible pDNA by PicoGreen fluorescence, normalized to free pDNA",108.3 (101.9 ± 118.4) min
